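Assay format: 96-well plates, 48-hour exposure. GI50 marks 50% less growth. At the TGI there is no net growth.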
Columns and labels:
Experiment in all cases: NCI-60 cell line screen, 48 h
A549 NSCLC = system: A549 NSCLC
DU-145 prostate = system: DU-145 prostate
NCI-H226 lung = system: NCI-H226 lung
NCI/ADR-RES ovarian = system: NCI/ADR-RES ovarian
PC-3 prostate = system: PC-3 prostate
SF-295 CNS = system: SF-295 CNS
SK-MEL-28 melanoma = system: SK-MEL-28 melanoma
SK-MEL-5 melanoma = system: SK-MEL-5 melanoma
SR leukemia = system: SR leukemia
UO-31 renal = system: UO-31 renal

| SMILES | GI50 (A549 NSCLC) [µM] | TGI (A549 NSCLC) [µM] | GI50 (DU-145 prostate) [µM] | TGI (DU-145 prostate) [µM] | GI50 (NCI-H226 lung) [µM] | TGI (NCI-H226 lung) [µM] | GI50 (NCI/ADR-RES ovarian) [µM] | TGI (NCI/ADR-RES ovarian) [µM] | GI50 (PC-3 prostate) [µM] | TGI (PC-3 prostate) [µM] | GI50 (SF-295 CNS) [µM] | TGI (SF-295 CNS) [µM] | GI50 (SK-MEL-28 melanoma) [µM] | TGI (SK-MEL-28 melanoma) [µM] | GI50 (SK-MEL-5 melanoma) [µM] | TGI (SK-MEL-5 melanoma) [µM] | GI50 (SR leukemia) [µM] | TGI (SR leukemia) [µM] | GI50 (UO-31 renal) [µM] | TGI (UO-31 renal) [µM] |
| --- | --- | --- | --- | --- | --- | --- | --- | --- | --- | --- | --- | --- | --- | --- | --- | --- | --- | --- | --- | --- |
| Cc1cc(C)n(C(=O)c2nn(-c3ccc(Cl)cc3)cc2O)n1 | 3.72 | > 100 | 6.23 | > 100 | 4.66 | 98.9 | 4.42 | > 100 | 7.05 | > 100 | 1.81 | 6.73 | 6.28 | > 100 | 6.76 | 23.3 | > 100 | > 100 | 3.01 | 19.2 |
| CC(O)(CNS(=O)(=O)c1ccccc1)c1ccccc1 (stereo not drawn) | – | > 100 | – | > 100 | – | > 100 | – | > 100 | – | > 100 | – | > 100 | – | > 100 | – | > 100 | – | > 100 | – | > 100 |
| CS(=O)(=O)CCn1c(=O)c(Oc2ccc(F)cc2F)cc2cnc(NC3CCOCC3)nc21 | > 25 | > 25 | > 25 | > 25 | > 25 | > 25 | > 25 | > 25 | > 25 | > 25 | > 25 | > 25 | > 25 | > 25 | > 25 | > 25 | > 25 | > 25 | > 25 | > 25 |
| CCOc1ccc2ccc3cccnc3c2n1 | – | > 100 | – | > 100 | – | > 100 | – | > 100 | – | > 100 | – | > 100 | – | > 100 | – | > 100 | – | 73 | – | > 100 |
| C[C@@H](Oc1ccc2[nH]nc(/C=C/c3cnn(CCO)c3)c2c1)c1c(Cl)cncc1Cl | 0.0938 | 5.79 | 0.413 | > 43.6 | 0.0304 | – | 0.697 | 3.81 | 1.41 | 7.4 | 0.0785 | 23.7 | 1.72 | 4.85 | 0.963 | 3.6 | 0.0208 | 1.1 | 0.217 | – |
| NC(Cc1ccnnc1)C(=O)O (stereo not drawn) | – | > 100 | – | > 100 | – | > 100 | – | > 100 | – | > 100 | – | > 100 | – | > 100 | – | > 100 | – | > 100 | – | > 100 |
| CCOC(=O)N[C@H]1CCc2c(Br)c(OC)c(OC)c(OC)c2-c2ccc(SC)c(=O)cc21 | < 0.0184 | > 43 | < 0.01 | 0.125 | < 0.0165 | 13.9 | 0.025 | 7.58 | < 0.01 | > 44.5 | < 0.01 | 3.79 | 8.06 | 23.4 | < 0.01 | 0.0237 | < 0.01 | > 37.3 | 0.131 | 15.2 |
| C[C@]12C3CC[C@@]4(CO)C[C@]3(CCC1[C@](C)(C(=O)O)CC[C@@H]2O)CC4=O (stereo partly drawn) | > 100 | > 100 | > 100 | > 100 | > 100 | > 100 | > 100 | > 100 | > 100 | > 100 | > 100 | > 100 | > 100 | > 100 | > 100 | > 100 | > 100 | > 100 | > 100 | > 100 |

— PubChem BioAssay (NCI)
